This is an account of results in US20240228512A1, “ACYCLIC OXAZEPINE COMPOUNDS COMPRISING A 6-AZA MOIETY AND USES THEREOF” (Genentech, Inc., priority 2022, published 2024).

Broadly, the IC50 is the midpoint of a concentration-inhibition curve.

One assay deals with H1975 cells. As to the kind of experiment: H1975 CTG proliferation assay. It is filed as cell-based. To be noted: Homo sapiens, NCI-H1975, H1975, CTG.
The test system of the next assay is SW620 cells. As to the kind of experiment: SW620 3D proliferation assay (CellTiter-Glo). The conditions noted are these: Homo sapiens, SW-620, 168 h, SW620, 3D culture, 7 days, read-out: SW620 CTG IC50. It is filed as cell-based. How it is done:
(§1) SW620 and HPAC 3D proliferation assays.
(§2) Compound potencies were assessed in proliferation assays conducted with SW620 and HPAC cell lines grown in 3D cultures. Cells were seeded into 96- or 384-well ultra-low attachment plates at 3000 or 1000 cells/well, respectively, in culture medium (RPMI-1640, 10% FBS, 2 mM L-glutamine). The plated cells were centrifuged briefly, allowed to rest for 30 minutes under ambient conditions, and cultured overnight at 37° C./5% CO2 to initiate the formation of spheroids. Compound dilutions were prepared across a range of concentrations in DMSO and added to the appropriate wells of the assay plates with a 333-fold dilution into the culture medium. The plates were further incubated for 7 days. The quantity of viable cells was assessed using CellTiter-Glo 3D Cell Viability Assay (Promega). The detection reagent penetrates the spheroids and lyses the cells. The released ATP that was detected with luciferase and a luciferase substrate to generate a luminescent readout. […] The data points were fit to a 4-parameter logistic equation to determine IC50 values.
For orientation: Cellular ATP, detected with luciferase, serves as a proxy for viable cell number.

For assay [1], the target named is recombinant human KRAS wild type (SOS1-mediated nucleotide exchange) (Homo sapiens (Human), UniProt P01116). As to the kind of experiment: KRAS biochemical assay, BODIPY-GDP exchange TR-FRET (WT-GDP HTRF). The procedure:
[Worded in the source for another variant; this variant is reported under the same test.] KRAS Biochemical Assay—BODIPY-GDP Exchange TR-FRET.
Biochemical compound potencies were assessed by evaluating inhibition of SOS1-mediated nucleotide exchange in KRAS G12D. The SOS1-promoted exchange of fluorescently-labeled GDP (BOPIDY-GDP) was monitored by time-resolved fluorescence resonance energy transfer (TR-FRET). Compounds solubilized in DMSO were dispensed as concentration series into 384-well white assay plates. […] The reaction was initiated with the addition of 5 μL of 3 nM recombinant human SOS1 and 300 nM BODIPY-GDP in assay buffer. After a 60-minute incubation, the fluorescence was measured with excitation at 337 nm and emission at 490 and 520 nm. The TR-FRET ratio was determined as the fluorescence at 520 nm divided by the fluorescence at 490 nm multiplied by 10,000. […] The normalized TR-FRET results were plotted against compound concentration, and the data fit to a 4-parameter Hill equation to determine the IC50 values.

A further assay concerns HPAC cells. As to the kind of experiment: HPAC 3D proliferation assay (CellTiter-Glo). The format is cell-based. The conditions noted are these: Homo sapiens, 168 h, 3D culture, 7 days, read-out: HPAC CTG IC50. The procedure: as §1, §2
For assay [2], the target named is recombinant human mutant KRas G12V (SOS1-mediated nucleotide exchange) (Homo sapiens (Human), UniProt P01116, G12V). As to the kind of experiment: KRAS biochemical assay, BODIPY-GDP exchange TR-FRET (G12V-GDP HTRF).
Sequence of recombinant human mutant KRas G12V (SOS1-mediated nucleotide exchange) (P01116-2 other isoform, or with tags, fused parts or gaps G12V): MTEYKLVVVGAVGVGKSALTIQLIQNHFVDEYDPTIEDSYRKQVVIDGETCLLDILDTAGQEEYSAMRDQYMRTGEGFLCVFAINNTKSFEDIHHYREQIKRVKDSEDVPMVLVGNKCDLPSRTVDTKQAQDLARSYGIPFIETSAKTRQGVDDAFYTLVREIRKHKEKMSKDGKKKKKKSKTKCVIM
The next assay concerns SW620 PERK. In words: SW620 PERK assay. It is filed as cell-based. The conditions noted are these: Homo sapiens, SW-620, SW620, PERK.

Sequence of recombinant human KRAS wild type (SOS1-mediated nucleotide exchange) (P01116-2 other isoform, or with tags, fused parts or gaps): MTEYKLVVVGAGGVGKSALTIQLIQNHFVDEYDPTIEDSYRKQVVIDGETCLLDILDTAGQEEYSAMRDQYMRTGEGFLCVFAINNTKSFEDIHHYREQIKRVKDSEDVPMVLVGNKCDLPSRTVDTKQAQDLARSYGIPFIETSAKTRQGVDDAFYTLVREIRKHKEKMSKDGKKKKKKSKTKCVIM

With `Cc1nc(N)cc(-c2nc3c4c(nc(OC[C@@H]5CCCN5C)nc4c2F)N([C@H](C)c2cccnc2N)CCO3)c1C(F)(F)F` [Example 627, 4-(10-((R)-1-(2-aminopyridin-3-yl)ethyl)-4-fluoro-2-(((S)-1-methylpyrrolidin-2-yl)methoxy)-9,10-dihydro-8H-7-oxa-1,3,6,10-tetraazacyclohepta[de]naphthalen-5-yl)-6-methyl-5-(trifluoromethyl)pyridin-2-amine], the half-maximal inhibitory concentration (IC50) is 854 nM with H1975 cells; 193 nM in the assay on SW620 cells; 4.67 nM in assay [1]; 1360 nM with HPAC cells; 0.44 nM in assay [2]; 52.6 nM in the assay on SW620 PERK.
For `C#Cc1cccc2cncc(-c3nc4c5c(nc(OC[C@@]67CCCN6C[C@H](F)C7)nc5c3F)N([C@H](C)c3cccnc3N)CCO4)c12` [Example 18, 3-((R)-1-(5-(5-ethynylisoquinolin-4-yl)-4-fluoro-2-(((2R,7aS)-2-fluorotetrahydro-1H-pyrrolizin-7a(5H)-yl)methoxy)-8,9-dihydro-10H-7-oxa-1,3,6,10-tetraazacyclohepta[de]naphthalen-10-yl)ethyl)pyridin-2-amine], the IC50 in the assay on H1975 cells turned out to be 5.54 nM; with SW620 cells it was 13 nM; in assay [1], 0.33 nM; in the assay on HPAC cells, 56.1 nM; in assay [2] it was 0.24 nM; with SW620 PERK it was 5.44 nM.
As to `Cc1c(F)c(N)nc(-c2nc3c4c(nc(OC[C@@]56CCCN5C[C@H](F)C6)nc4c2F)N([C@H](C)c2cc(F)cnc2N)CCO3)c1C(F)(F)F` [Example 631, 6-(10-((R)-1-(2-amino-5-fluoropyridin-3-yl)ethyl)-4-fluoro-2-(((2R,7aS)-2-fluorotetrahydro-1H-pyrrolizin-7a(5H)-yl)methoxy)-9,10-dihydro-8H-7-oxa-1,3,6,10-tetraazacyclohepta[de]naphthalen-5-yl)-3-fluoro-4-methyl-5-(trifluoromethyl)pyridin-2-amine], the half-inhibitory concentration (IC50) came out at 113 nM in the assay with H1975 cells; 47.3 nM in the assay with SW620 cells; 0.741 nM in assay [1]; 110 nM in the assay on HPAC cells; 0.21 nM in assay [2]; 16.5 nM in the assay with SW620 PERK.
Consider `Cc1c(F)c(N)nc(-c2nc3c4c(nc(OC[C@@]56CCCN5C[C@H](F)C6)nc4c2Cl)N([C@H](C)c2cccnc2N)CCO3)c1C(F)(F)F` [Example 620, 6-(10-((R)-1-(2-aminopyridin-3-yl)ethyl)-4-chloro-2-(((2R,7aS)-2-fluorotetrahydro-1H-pyrrolizin-7a(5H)-yl)methoxy)-9,10-dihydro-8H-7-oxa-1,3,6,10-tetraazacyclohepta[de]naphthalen-5-yl)-3-fluoro-4-methyl-5-(trifluoromethyl)pyridin-2-amine], for which the IC50 amounted to 132 nM with H1975 cells; 19.2 nM in the assay on SW620 cells; 0.748 nM in assay [1]; 89.8 nM with HPAC cells; 0.24 nM in assay [2]; 4.29 nM in the assay with SW620 PERK.
`C#Cc1cccc2cc(N)cc(-c3nc4c5c(nc(OC[C@@]67CCCN6C[C@H](F)C7)nc5c3F)N([C@H](C)c3nccnc3N)CCO4)c12` [Example 29, 3-((R)-1-(5-(3-Amino-8-ethynyinaphthalen-1-yl)-4-fluoro-2-(((2R,7aS)-2-fluorotetrahydro-1H-pyrrolizin-7a(5H)-yl)methoxy)-8,9-dihydro-10H-7-oxa-1,3,6,10-tetraazacyclohepta[de]naphthalen-10-yl)ethyl)pyrazin-2-amine]: the IC50 in the assay with H1975 cells is 2.59 nM; in the assay on SW620 cells, 1.64 nM; in assay [1], 0.15 nM; with HPAC cells it was 4.51 nM; in assay [2] it was 0.09 nM; with SW620 PERK, 0.66 nM.
As to `Cc1c(F)c(N)nc(-c2nc3c4c(nc(OC[C@@]56CCCN5C[C@H](F)C6)nc4c2F)N([C@H](C)c2nccnc2N)CCO3)c1C(F)(F)F` [Example 630, 3-((R)-1-(5-(6-amino-5-fluoro-4-methyl-3-(trifluoromethyl)pyridin-2-yl)-4-fluoro-2-(((2R,7aS)-2-fluorotetrahydro-1H-pyrrolizin-7a(5H)-yl)methoxy)-8,9-dihydro-10H-7-oxa-1,3,6,10-tetraazacyclohepta[de]naphthalen-10-yl)ethyl)pyrazin-2-amine], the IC50 in the assay with H1975 cells stood at 134 nM; with SW620 cells it was 28.8 nM; in assay [1], 2 nM; in the assay on HPAC cells, 208 nM; in assay [2], 0.32 nM; with SW620 PERK, 21.2 nM.
On to `Cc1nc(N)cc(-c2nc3c4c(nc(OC[C@@]56CCN5C[C@]5(CC5(F)F)C6)nc4c2F)N([C@H](C)c2cncnc2N)CCO3)c1C(F)(F)F` [Example 606], for which the IC50 with H1975 cells was 374 nM; in the assay on SW620 cells it was 1520 nM; in assay [1], 0.808 nM; in the assay on HPAC cells, greater than 2000 nM; in assay [2], 0.2 nM; in the assay on SW620 PERK, 855 nM.
For `Cc1c(F)c(N)c(F)c(-c2nc3c4c(nc(OC[C@@]56CCCN5C[C@H](F)C6)nc4c2Cl)N([C@H](C)c2cccnc2N)CCO3)c1C(F)(F)F` (single isomer, unassigned) [Example 629b], the IC50 in the assay on H1975 cells stood at 426 nM; in the assay with SW620 cells, 74.2 nM; in assay [1] it was 12.3 nM; in the assay with HPAC cells, 682 nM; in assay [2] it was 4.8 nM; in the assay with SW620 PERK, 105 nM.
For `C[C@H](c1cccnc1N)N1CCOc2nc(-c3c(C(F)(F)F)ccc(N)c3Cl)c(F)c3nc(OC[C@@]45CCCN4C[C@H](F)C5)nc1c23` (single isomer, unassigned) [Example 622b], the IC50 in the assay with H1975 cells stood at 2610 nM; in the assay with SW620 cells, 22.8 nM; in assay [1], 5.5 nM; with HPAC cells, 123 nM; in assay [2] it was 2.3 nM; in the assay with SW620 PERK it was 29.6 nM.
As to `C#Cc1cccc2nc(N)cc(-c3nc4c5c(nc(OC[C@@]67CCCN6C[C@H](F)C7)nc5c3F)N([C@H](C)c3cccnc3N)CCO4)c12` [Example 30, 4-(10-((R)-1-(2-aminopyridin-3-yl)ethyl)-4-fluoro-2-(((2R,7aS)-2-fluorotetrahydro-1H-pyrrolizin-7a(5H)-yl)methoxy)-9,10-dihydro-8H-7-oxa-1,3,6,10-tetraazacyclohepta[de]naphthalen-5-yl)-5-ethynylquinolin-2-amine], the IC50 amounted to 2.59 nM in the assay on H1975 cells; 2.67 nM in the assay on SW620 cells; 0.114 nM in assay [1]; 15.8 nM in the assay on HPAC cells; 0.06 nM in assay [2]; 2.65 nM in the assay on SW620 PERK.
Consider `Cc1c(F)c(N)nc(-c2nc3c4c(nc(OC[C@@]56CCCN5C[C@]5(CC5(F)F)C6)nc4c2F)N([C@H](C)c2nccnc2N)CCO3)c1C(F)(F)F` [Example 632], for which the IC50 with H1975 cells was determined as 83.4 nM; in the assay on SW620 cells it was 15.5 nM; in assay [1], 0.379 nM; in the assay with HPAC cells, 83.4 nM; in assay [2], 0.089 nM; in the assay on SW620 PERK, 6.08 nM.
